Drawing on article PMC4215169 (Nature communications, 2014), this text covers IC50 for two compounds.

One assay deals with HCV protease. Conditions: cited from earlier work.
The target in the next assay is wild-type HCV protease (Hepatitis C virus genotype 1a, UniProt P27958). Type of assay: biochemical.
Another assay concerns the target HCV protease D168Y (Hepatitis C virus genotype 1a, UniProt P27958, D1194Y). Put plainly: biochemical.
A further assay concerns the target HCV protease D168E (Hepatitis C virus genotype 1a, UniProt P27958, D1194E). Put plainly: biochemical.

By IC50 is commonly meant the concentration needed to halve the response being measured. `C=C[C@@H]1C[C@]1(NC(=O)[C@@H]1C[C@@H](Oc2ncc(OC)c3ccc(Cl)cc23)CN1C(=O)[C@@H](NC(=O)OC(C)(C)C)C(C)(C)C)C(=O)NS(=O)(=O)C1CC1` [asunaprevir]: the IC50 in the assay on HCV protease is roughly 1 nM.

For `CC(C)(C)OC(=O)N[C@H]1CCCCC/C=C\[C@@H]2C[C@@]2(C(=O)NS(=O)(=O)C2CC2)NC(=O)[C@@H]2C[C@@H](OC(=O)N3Cc4cccc(F)c4C3)CN2C1=O` [danoprevir], the IC50 in the assay on HCV protease is roughly 0.3 nM; against wild-type HCV protease, 1.3 ± 0.1 nM; against HCV protease D168Y it was 34.4 ± 2.8 nM; against HCV protease D168E, 38.9 ± 2.4 nM.
